{"source": "patent US10294202B2", "about": "“Pyrrolidinones as herbicides” (FMC Corporation, priority 2013, dated 2019)", "key": {"galium": {"system": "galium", "assay": "Test A postemergence herbicide test", "type": "in vivo, Galium aparine", "conditions": "for Plant response rating, Galium: 125 g ai/ha", "from_the_text": "(§1) At the same time, plants selected from these crop and weed species and also blackgrass (Alopecurus myosuroides), and galium (catchweed bedstraw, Galium aparine) were planted in pots containing the same blend of loam soil and sand and treated with postemergence applications of test chemicals formulated in the same manner. Plants ranged in height from 2 to 10 cm and were in the one- to two-leaf stage for the postemergence treatment. Treated plants and untreated controls were maintained in a greenhouse for approximately 10 days, after which time all treated plants were compared to untreated controls and visually evaluated for injury. Plant response ratings, summarized in Table A, are based on a 0 to 100 scale where 0 is no effect and 100 is complete control. A dash (-) response means no test result."}, "ragweed": {"system": "ragweed", "assay": "Test A pre-/postemergence herbicide test", "type": "in vivo, Ambrosia elatior", "from_the_text": "as §1, with “Seeds of plant species selected from bamyardgrass (Echinochloa crus-galli), kochia (Kochia scoparia), ragweed (common ragweed, Ambrosia elatior), ryegrass, Italian (Italian ryegrass, Lolium multiflorum), crabgrass, large (large crabgrass Digitaria sanguinalis), giant foxtail (Setaria faberii), morningglory (Ipomoea spp.), pigweed (Amaranthus retroflexus), velvetleaf (Abutilon theophrasti), wheat (Triticum aestivum), and corn (Zea mays) were planted into a blend of loam soil and sand and treated preemergence with a directed soil spray using test chemicals formulated in a non-phytotoxic solvent mixture which included a surfactant. At” for “At”"}, "barnyardgrass": {"system": "barnyardgrass", "assay": "Test A pre-/postemergence herbicide test", "type": "in vivo, Echinochloa crus-galli", "procedure,_shortened": "(§2)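 Visual 0–100 ratings (100 = complete control) made about 10 days after treatment, greenhouse-held plants compared with untreated controls. Treatments: postemergence sprays on one- to two-leaf plants (2–10 cm tall) and preemergence directed soil sprays after planting in loam–sand, chemicals formulated in non-phytotoxic solvent containing surfactant.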"}, "blackgrass": {"system": "blackgrass", "assay": "Test A postemergence herbicide test", "type": "in vivo, Alopecurus myosuroides", "from_the_text": "as §1"}, "giant foxtail": {"system": "giant foxtail", "assay": "Test A pre-/postemergence herbicide test", "type": "in vivo, Setaria faberii", "procedure,_shortened": "as §2"}, "kochia": {"system": "kochia", "assay": "Test A pre-/postemergence herbicide test", "type": "in vivo, Kochia scoparia", "from_the_text": "as §1, with “Seeds of plant species selected from bamyardgrass (Echinochloa crus-galli), kochia (Kochia scoparia), ragweed (common ragweed, Ambrosia elatior), ryegrass, Italian (Italian ryegrass, Lolium multiflorum), crabgrass, large (large crabgrass Digitaria sanguinalis), giant foxtail (Setaria faberii), morningglory (Ipomoea spp.), pigweed (Amaranthus retroflexus), velvetleaf (Abutilon theophrasti), wheat (Triticum aestivum), and corn (Zea mays) were planted into a blend of loam soil and sand and treated preemergence with a directed soil spray using test chemicals formulated in a non-phytotoxic solvent mixture which included a surfactant. At” for “At”"}, "wheat": {"system": "wheat", "assay": "Test A pre-/postemergence herbicide test", "type": "in vivo, Triticum aestivum", "conditions": "Postemergence; for Plant response rating, Wheat: 125 g ai/ha", "procedure,_shortened": "as §2"}, "corn": {"system": "corn", "assay": "Test A pre-/postemergence herbicide test", "type": "in vivo, Zea mays", "conditions": "Postemergence", "procedure,_shortened": "as §2"}, "ryegrass, Italian": {"system": "ryegrass, Italian", "assay": "Test A pre-/postemergence herbicide test", "type": "in vivo, Lolium multiflorum", "from_the_text": "as §1, with “Seeds of plant species selected from bamyardgrass (Echinochloa crus-galli), kochia (Kochia scoparia), ragweed (common ragweed, Ambrosia elatior), ryegrass, Italian (Italian ryegrass, Lolium multiflorum), crabgrass, large (large crabgrass Digitaria sanguinalis), giant foxtail (Setaria faberii), morningglory (Ipomoea spp.), pigweed (Amaranthus retroflexus), velvetleaf (Abutilon theophrasti), wheat (Triticum aestivum), and corn (Zea mays) were planted into a blend of loam soil and sand and treated preemergence with a directed soil spray using test chemicals formulated in a non-phytotoxic solvent mixture which included a surfactant. At” for “At”"}, "pigweed": {"system": "pigweed", "assay": "Test A pre-/postemergence herbicide test", "type": "in vivo, Amaranthus retroflexus", "from_the_text": "as §1, with “Seeds of plant species selected from bamyardgrass (Echinochloa crus-galli), kochia (Kochia scoparia), ragweed (common ragweed, Ambrosia elatior), ryegrass, Italian (Italian ryegrass, Lolium multiflorum), crabgrass, large (large crabgrass Digitaria sanguinalis), giant foxtail (Setaria faberii), morningglory (Ipomoea spp.), pigweed (Amaranthus retroflexus), velvetleaf (Abutilon theophrasti), wheat (Triticum aestivum), and corn (Zea mays) were planted into a blend of loam soil and sand and treated preemergence with a directed soil spray using test chemicals formulated in a non-phytotoxic solvent mixture which included a surfactant. At” for “At”"}, "[1]": {"conditions": "visual rating on 0 to 100 scale (0 no effect, 100 complete control), approx. 10 days"}, "[2]": {"conditions": "Postemergence, 125 g ai/ha, visual rating on 0 to 100 scale (0 no effect, 100 complete control), approx. 10 days"}, "[3]": {"conditions": "Preemergence, 125 g ai/ha, 0 to 100 scale where 0 is no effect and 100 is complete control"}, "[4]": {"conditions": "Preemergence, 500 g ai/ha, visual rating on 0 to 100 scale (0 no effect, 100 complete control)"}, "[5]": {"conditions": "Postemergence, 500 g ai/ha, 0 to 100 scale (0 no effect, 100 complete control)"}, "[6]": {"conditions": "125 g ai/ha, visual rating on 0 to 100 scale (0 no effect, 100 complete control), approx. 10 days"}, "[7]": {"conditions": "500 g ai/ha, 0 to 100 scale (0 no effect, 100 complete control)"}, "[8]": {"conditions": "0 to 100 scale, 0 is no effect, 100 is complete control"}, "[9]": {"conditions": "125 g ai/ha, visual rating, 0 to 100 scale, 0 no effect, 100 complete control, approximately 10 days, preemergence"}, "[10]": {"conditions": "Postemergence, 125 g ai/ha, 0 to 100 scale, 0 is no effect, 100 is complete control"}, "[11]": {"conditions": "preemergence, 500 g ai/ha, 0 to 100 scale, 0 is no effect and 100 is complete control"}, "[12]": {"conditions": "125 g ai/ha, 0 to 100 scale, 0 is no effect, 100 is complete control"}}}
{"smiles": "CC(C)(C)c1cccc(C2CNC(=O)C2C(=O)Nc2ccccc2F)c1", "note": "(stereo not shown) [Compound 347]", "values": [{"measurement": "Plant response rating, Galium", "setting": "galium; [1]", "result": 0}, {"measurement": "Plant response rating, Ragweed", "setting": "ragweed; [2]", "result": 0}, {"measurement": "Plant response rating, Ragweed", "setting": "ragweed; [3]", "result": 0}, {"measurement": "Ragweed plant response rating", "setting": "ragweed; [4]", "result": 0}, {"measurement": "Plant response rating, Barnyardgrass", "setting": "barnyardgrass; [2]", "result": 50}, {"measurement": "Plant response rating, Barnyardgrass", "setting": "barnyardgrass; [5]", "result": 50}, {"measurement": "Plant response rating, Barnyardgrass", "setting": "barnyardgrass; [3]", "result": 50}, {"measurement": "Barnyardgrass plant response rating", "setting": "barnyardgrass; [4]", "result": 90}, {"measurement": "Plant response rating, Blackgrass", "setting": "blackgrass; [6]", "result": 0}, {"measurement": "Plant response rating, Blackgrass", "setting": "blackgrass; [7]", "result": 0}, {"measurement": "Plant response rating, Foxtail, Giant", "setting": "giant foxtail; [2]", "result": 20}, {"measurement": "Plant response rating, Foxtail, Giant", "setting": "giant foxtail; [5]", "result": 20}, {"measurement": "Plant response rating, Foxtail, Giant", "setting": "giant foxtail; [3]", "result": 20}, {"measurement": "Foxtail, Giant plant response rating", "setting": "giant foxtail; [4]", "result": 40}, {"measurement": "Plant response rating, Kochia", "setting": "kochia; [2]", "result": 0}, {"measurement": "Plant response rating, Kochia", "setting": "kochia; [3]", "result": 0}, {"measurement": "Kochia plant response rating", "setting": "kochia; [4]", "result": 0}, {"measurement": "Plant response rating, Wheat", "setting": "wheat; [1]", "result": 0}, {"measurement": "Plant response rating, Corn", "setting": "corn; [6]", "result": 0}, {"measurement": "Plant response rating, Corn", "setting": "corn; [7]", "result": 0}, {"measurement": "Plant response rating, Ryegrass, Italian", "setting": "ryegrass, Italian; [2]", "result": 0}, {"measurement": "Plant response rating, Ryegrass, Italian", "setting": "ryegrass, Italian; [3]", "result": 0}, {"measurement": "Ryegrass, Italian plant response rating", "setting": "ryegrass, Italian; [4]", "result": 0}, {"measurement": "Plant response rating, Pigweed", "setting": "pigweed; [2]", "result": 0}, {"measurement": "Plant response rating, Pigweed", "setting": "pigweed; [3]", "result": 0}, {"measurement": "Pigweed plant response rating", "setting": "pigweed; [4]", "result": 0}]}
{"smiles": "O=C1NCC(c2ccc(OC(F)(F)C(F)F)cc2)C1C(=O)Nc1ccc(F)c(F)c1F", "note": "(racemic) [Compound 174]", "values": [{"measurement": "Plant response rating, Galium", "setting": "galium; [8]", "result": 0}, {"measurement": "Galium plant response rating (0 to 100 scale, 0 is no effect, 100 is complete control)", "setting": "galium; 500 g ai/ha", "result": 0}, {"measurement": "Plant response rating, Ragweed", "setting": "ragweed; [9]", "result": 0}, {"measurement": "Plant response rating, Ragweed", "setting": "ragweed; [10]", "result": 0}, {"measurement": "Ragweed plant response rating (0 to 100 scale, 0 is no effect, 100 is complete control)", "setting": "ragweed; Postemergence, 500 g ai/ha", "result": 0}, {"measurement": "Plant response rating, Ragweed", "setting": "ragweed; [11]", "result": 0}, {"measurement": "Plant response rating, Barnyardgrass", "setting": "barnyardgrass; [9]", "result": 0}, {"measurement": "Plant response rating, Barnyardgrass", "setting": "barnyardgrass; [10]", "result": 0}, {"measurement": "Barnyardgrass plant response rating (0 to 100 scale, 0 is no effect, 100 is complete control)", "setting": "barnyardgrass; Postemergence, 500 g ai/ha", "result": 20}, {"measurement": "Plant response rating, Barnyardgrass", "setting": "barnyardgrass; [11]", "result": 20}, {"measurement": "Plant response rating, Blackgrass", "setting": "blackgrass; [12]", "result": 0}, {"measurement": "Blackgrass plant response rating (0 to 100 scale, 0 is no effect, 100 is complete control)", "setting": "blackgrass; 500 g ai/ha", "result": 0}, {"measurement": "Plant response rating, Foxtail, Giant", "setting": "giant foxtail; [9]", "result": 30}, {"measurement": "Plant response rating, Foxtail, Giant", "setting": "giant foxtail; [10]", "result": 20}, {"measurement": "Foxtail, Giant plant response rating (0 to 100 scale, 0 is no effect, 100 is complete control)", "setting": "giant foxtail; Postemergence, 500 g ai/ha", "result": 30}, {"measurement": "Plant response rating, Foxtail, Giant", "setting": "giant foxtail; [11]", "result": 50}, {"measurement": "Plant response rating, Kochia", "setting": "kochia; [9]", "result": 0}, {"measurement": "Plant response rating, Kochia", "setting": "kochia; [10]", "result": 0}, {"measurement": "Kochia plant response rating (0 to 100 scale, 0 is no effect, 100 is complete control)", "setting": "kochia; Postemergence, 500 g ai/ha", "result": 0}, {"measurement": "Plant response rating, Kochia", "setting": "kochia; [11]", "result": 20}, {"measurement": "Plant response rating, Wheat", "setting": "wheat; [8]", "result": 0}, {"measurement": "Wheat plant response rating (0 to 100 scale, 0 is no effect, 100 is complete control)", "setting": "wheat; 500 g ai/ha", "result": 0}, {"measurement": "Plant response rating, Corn", "setting": "corn; [12]", "result": 0}, {"measurement": "Corn plant response rating (0 to 100 scale, 0 is no effect, 100 is complete control)", "setting": "corn; 500 g ai/ha", "result": 0}, {"measurement": "Plant response rating, Ryegrass, Italian", "setting": "ryegrass, Italian; [9]", "result": 0}, {"measurement": "Plant response rating, Ryegrass, Italian", "setting": "ryegrass, Italian; [10]", "result": 0}, {"measurement": "Ryegrass, Italian plant response rating (0 to 100 scale, 0 is no effect, 100 is complete control)", "setting": "ryegrass, Italian; Postemergence, 500 g ai/ha", "result": 0}, {"measurement": "Plant response rating, Ryegrass, Italian", "setting": "ryegrass, Italian; [11]", "result": 0}, {"measurement": "Plant response rating, Pigweed", "setting": "pigweed; [9]", "result": 0}, {"measurement": "Plant response rating, Pigweed", "setting": "pigweed; [10]", "result": 0}, {"measurement": "Pigweed plant response rating (0 to 100 scale, 0 is no effect, 100 is complete control)", "setting": "pigweed; Postemergence, 500 g ai/ha", "result": 0}, {"measurement": "Plant response rating, Pigweed", "setting": "pigweed; [11]", "result": 0}]}
